Data: patent US11485776B2, “Antibodies against infectious diseases” (priority 2015, dated 2022)
≈ marks a conversion by molar mass, not a printed value.

How the values were obtained:
Assay type in all cases: cell-based
C. albicans = experiment: MIC test strips, clinical C. albicans
Experimental: (§1) C. albicans (SC 5314), C. kruesi (clinical isolate), C. tropicalis (BCRC 20520), C. parapsilosis (BCRC 20515) and C. glabrate (BCRC 20586) were kindly provided by Dr. Ching-Hua Su from Taipei Medical University, Taipei, Taiwan. […] Candida species were cultured in YPD medium and their identities were confirmed by CHROMagar Candida plate (CHROMagar, Paris, France).

C. tropicalis = experiment: MIC test strips, clinical C. tropicalis
Experimental: as §1

C. glabrate = experiment: MIC test strips, clinical C. glabrate
Experimental: as §1

C. parapsilosis = experiment: MIC test strips, clinical C. parapsilosis
Experimental: as §1

[1] = specimen CT11-52, C. tropicalis
[2] = specimen CT12-54, C. tropicalis
[3] = specimen CP6-20, C. parapsilosis
[4] = specimen CP7-17, C. parapsilosis
[5] = specimen CP8-48, C. parapsilosis

For `OC(Cn1cncn1)(Cn1cncn1)c1ccc(F)cc1F` [fluconazole], the Interpretation (C. albicans; specimen CA6-17, C. albicans) was “R”, the MIC (C. albicans; specimen CA6-17, C. albicans, read at 80% inhibition) was 16 µg/mL (≈ 52.2 µM) and the Interpretation (C. albicans; specimen CA7-3, C. albicans) was “S”. For the same molecule, the MIC (C. albicans; specimen CA7-3, C. albicans) was 2 µg/mL (≈ 6.53 µM), the Interpretation (C. albicans; specimen CA7-26, C. albicans) was “R” and the MIC (C. albicans; specimen CA7-26, C. albicans) was 8 µg/mL (≈ 26.1 µM). For the same molecule, the Interpretation (C. albicans; specimen CA7-30, C. albicans) was “S”, the MIC (C. albicans; specimen CA7-30, C. albicans) was 1 µg/mL (≈ 3.27 µM) and the Interpretation (C. albicans; specimen CA10-50, C. albicans) was “S”. For the same molecule, the MIC (C. albicans; specimen CA10-50, C. albicans) was 2 µg/mL (≈ 6.53 µM), the Interpretation (C. albicans; specimen CA10-65, C. albicans) was “S” and the MIC (C. albicans; specimen CA10-65, C. albicans) was 1 µg/mL (≈ 3.27 µM). The Interpretation (C. tropicalis; specimen CT6-29, C. tropicalis) was “R”, the MIC (C. tropicalis; specimen CT6-29, C. tropicalis) was 32 µg/ml and the Interpretation (C. tropicalis; specimen CT6-50, C. tropicalis) was “R”. For the same molecule, the MIC (C. tropicalis; specimen CT6-50, C. tropicalis) was 8 µg/mL (≈ 26.1 µM), the Interpretation (C. tropicalis; [1]) was “R” and the MIC (C. tropicalis; [1]) was 32 µg/ml. For the same molecule, the Interpretation (C. tropicalis; [2]) was “R”, the MIC (C. tropicalis; [2]) was 8 µg/mL (≈ 26.1 µM) and the Interpretation (C. glabrate; specimen CG5-8, C. glabrate) was “R”. The MIC (C. glabrate; specimen CG5-8, C. glabrate) was 64 µg/mL (≈ 209 µM), the Interpretation (C. glabrate; specimen CG5-66, C. glabrate) was “S” and the MIC (C. glabrate; specimen CG5-66, C. glabrate) was 16 µg/mL (≈ 52.2 µM). The Interpretation (C. glabrate; specimen CG7-37, C. glabrate) was “S”, the MIC (C. glabrate; specimen CG7-37, C. glabrate) was 32 µg/ml and the Interpretation (C. glabrate; specimen CG8-11, C. glabrate) was “R”. For the same molecule, the MIC (C. glabrate; specimen CG8-11, C. glabrate) was 64 µg/mL (≈ 209 µM), the Interpretation (C. parapsilosis; [3]) was “R” and the MIC (C. parapsilosis; [3]) was 16 µg/mL (≈ 52.2 µM). The Interpretation (C. parapsilosis; [4]) was “S”, the MIC (C. parapsilosis; [4]) was 8 µg/mL (≈ 26.1 µM) and the Interpretation (C. parapsilosis; specimen CP8-20, C. parapsilosis) was “R”. The Interpretation (C. parapsilosis; [5]) was “S”, the MIC (C. parapsilosis; [5]) was 4 µg/mL (≈ 13.1 µM) and the Interpretation (C. parapsilosis; specimen CP12-37, C. parapsilosis) was “R”.
